# According to ChEMBL document CHEMBL3885861, “Open TG-GATES”:
# Species on record: Rattus norvegicus
# Assay: Open TG-GATES - Regimen: Daily Repeat
# Format: toxicity, organism-based, Sprague-Dawley
# Design: regimen Daily Repeat, gender Male, age 6 weeks
# Conditions: in vivo, po, route gavage; for Bas / Eos / Fbg / Hb / Ht / Lym / MCV / Mono / Neu / PT / Plat / RBC / Ret / WBC / APTT / MCH / MCHC: tissue Blood; for KIDNEY_L / KIDNEY_R / KIDNEY_TOTAL: tissue Kidney; for LIVER: tissue Liver; for ALP / ALT / AST / BUN / CRE / DBIL / GLC / IP / K / LDH / Na / PL / RALB / TBIL / TC / TG / TP / gamma-GTP / Ca: tissue Plasma
# [1] = 300 mg/kg, 72 h, dose level Middle, time 3 day
# [2] = 300 mg/kg, […], dose level Middle, time 7 day
# [3] = 300 mg/kg, […], dose level Middle, time 14 day
# [4] = 300 mg/kg, […], dose level Middle, time 28 day
# [5] = 1000 mg/kg, 72 h, dose level High, time 3 day
# [6] = 1000 mg/kg, […], dose level High, time 7 day
# [7] = 1000 mg/kg, […], dose level High, time 14 day
# [8] = 1000 mg/kg, […], dose level High, time 28 day
structure (smiles),measurement,setting,value
O=C(O)c1cn(C2CC2)c2cc(N3CCNCC3)c(F)cc2c1=O [CIPROFLOXACIN],Bas,[1],0%
same,Eos,[1],1%
same,Fbg,[1],217 mg/dL
same,Hb,[1],13 g/dL
same,Ht,[1],38.7%
same,Lym,[1],78.4%
same,MCV,[1],63.5 fL
same,Mono,[1],6%
same,Neu,[1],14.4%
same,PT,[1],12.4 s
same,Plat,[1],103.1 x10_4/uL
same,RBC,[1],609 x10_4/ul
same,Ret,[1],6.9%
same,WBC,[1],87 x10_2/uL
same,KIDNEY_L,[1],0.9 g
same,KIDNEY_R,[1],0.9 g
same,KIDNEY_TOTAL,[1],1.8 g
same,LIVER,[1],8.6 g
same,ALP,[1],998 IU/L
same,ALT,[1],37.8 IU/L
same,AST,[1],68.4 IU/L
same,BUN,[1],16.4 mg/dL
same,CRE,[1],0.5 mg/dL
same,DBIL,[1],0.014 mg/dL
same,GLC,[1],182 mg/dL
same,IP,[1],9.1 mg/dL
same,K,[1],5 meq/L
same,LDH,[1],81 IU/L
same,Na,[1],140.4 meq/L
same,PL,[1],148.8 mg/dL
same,RALB,[1],3.8 g/dL
same,TBIL,[1],0.3 mg/dL
same,TC,[1],91 mg/dL
same,TG,[1],49.4 mg/dL
same,TP,[1],5.8 g/dL
same,gamma-GTP,[1],2.2 IU/L
same,TERMINAL_BW,[2],237.8 g
same,TERMINAL_BW,[3],282.8 g
same,TERMINAL_BW,[4],378.4 g
same,APTT,[2],16 s
same,Bas,[2],0%
same,Eos,[2],0.6%
same,Fbg,[2],218.5 mg/dL
same,Hb,[2],13.2 g/dL
same,Ht,[2],39.7%
same,Lym,[2],80.4%
same,MCH,[2],21.4 pg
same,MCHC,[2],33.4%
same,MCV,[2],64 fL
same,Mono,[2],4.8%
same,Neu,[2],14%
same,PT,[2],12.4 s
same,Plat,[2],98.1 x10_4/uL
same,RBC,[2],620.2 x10_4/ul
same,Ret,[2],6.7%
same,WBC,[2],128.7 x10_2/uL
same,APTT,[3],16.4 s
same,Bas,[3],0%
same,Eos,[3],1%
same,Fbg,[3],251 mg/dL
same,Hb,[3],13.9 g/dL
same,Ht,[3],41.6%
same,Lym,[3],83.4%
same,MCH,[3],20.4 pg
same,MCHC,[3],33.4%
same,MCV,[3],61.2 fL
same,Mono,[3],5%
same,Neu,[3],10.6%
same,PT,[3],10 s
same,Plat,[3],117.4 x10_4/uL
same,RBC,[3],680.8 x10_4/ul
same,Ret,[3],6.4%
same,WBC,[3],162 x10_2/uL
same,APTT,[4],16.7 s
same,Bas,[4],0%
same,Eos,[4],0.8%
same,Fbg,[4],245.2 mg/dL
same,Ht,[4],44%
same,Lym,[4],83.2%
same,MCH,[4],19.3 pg
same,MCHC,[4],33.2%
same,MCV,[4],58.1 fL
same,Mono,[4],5%
same,Neu,[4],10.8%
same,Plat,[4],100 x10_4/uL
same,RBC,[4],756.8 x10_4/ul
same,Ret,[4],3.2%
same,WBC,[4],123.6 x10_2/uL
same,KIDNEY_L,[2],1 g
same,KIDNEY_R,[2],1 g
same,KIDNEY_TOTAL,[2],2.1 g
same,KIDNEY_L,[3],1.1 g
same,KIDNEY_R,[3],1.1 g
same,KIDNEY_TOTAL,[3],2.3 g
same,KIDNEY_L,[4],1.3 g
same,KIDNEY_R,[4],1.3 g
same,KIDNEY_TOTAL,[4],2.6 g
same,LIVER,[2],10.8 g
same,LIVER,[3],12.3 g
same,LIVER,[4],16 g
same,ALP,[2],917.6 IU/L
same,AST,[2],66.4 IU/L
same,BUN,[2],20 mg/dL
same,CRE,[2],0.5 mg/dL
same,Ca,[2],11.4 mg/dL
same,DBIL,[2],0.004 mg/dL
same,GLC,[2],173.8 mg/dL
same,IP,[2],9 mg/dL
same,K,[2],4.9 meq/L
same,LDH,[2],65.2 IU/L
same,Na,[2],141.6 meq/L
same,PL,[2],160.8 mg/dL
same,RALB,[2],4 g/dL
same,TBIL,[2],0.3 mg/dL
same,TC,[2],90 mg/dL
same,TG,[2],86.6 mg/dL
same,TP,[2],5.8 g/dL
same,gamma-GTP,[2],1.2 IU/L
same,ALP,[3],973.2 IU/L
same,ALT,[3],31.6 IU/L
same,AST,[3],59.2 IU/L
same,BUN,[3],20.4 mg/dL
same,CRE,[3],0.6 mg/dL
same,Ca,[3],11 mg/dL
same,DBIL,[3],0.008 mg/dL
same,GLC,[3],184.8 mg/dL
same,IP,[3],7.8 mg/dL
same,K,[3],4.8 meq/L
same,LDH,[3],83.4 IU/L
same,Na,[3],139 meq/L
same,PL,[3],160 mg/dL
same,RALB,[3],4 g/dL
same,TBIL,[3],0.3 mg/dL
same,TG,[3],105.8 mg/dL
same,TP,[3],6 g/dL
same,gamma-GTP,[3],2.8 IU/L
same,ALP,[4],655 IU/L
same,ALT,[4],33.8 IU/L
same,AST,[4],59.4 IU/L
same,BUN,[4],19.8 mg/dL
same,CRE,[4],0.4 mg/dL
same,DBIL,[4],0.004 mg/dL
same,GLC,[4],180.8 mg/dL
same,IP,[4],7.7 mg/dL
same,K,[4],4.4 meq/L
same,LDH,[4],102.2 IU/L
same,Na,[4],140.6 meq/L
same,PL,[4],172 mg/dL
same,RALB,[4],4.1 g/dL
same,TBIL,[4],0.3 mg/dL
same,TC,[4],82.6 mg/dL
same,TG,[4],184.6 mg/dL
same,TP,[4],6.6 g/dL
same,gamma-GTP,[4],1 IU/L
same,TERMINAL_BW,[5],203.7 g
same,APTT,[5],18.7 s
same,Bas,[5],0%
same,Eos,[5],1%
same,Fbg,[5],222 mg/dL
same,Hb,[5],12.8 g/dL
same,Ht,[5],38.4%
same,Lym,[5],83.2%
same,MCH,[5],21.2 pg
same,MCHC,[5],33.4%
same,Mono,[5],6%
same,Neu,[5],10%
same,PT,[5],12.3 s
same,Plat,[5],101.1 x10_4/uL
same,RBC,[5],603.4 x10_4/ul
same,Ret,[5],6%
same,WBC,[5],121.3 x10_2/uL
same,KIDNEY_L,[5],0.9 g
same,KIDNEY_R,[5],1 g
same,KIDNEY_TOTAL,[5],1.9 g
same,LIVER,[5],9.6 g
same,ALP,[5],962.6 IU/L
same,ALT,[5],39 IU/L
same,AST,[5],65.2 IU/L
same,BUN,[5],16.8 mg/dL
same,CRE,[5],0.5 mg/dL
same,Ca,[5],11.2 mg/dL
same,DBIL,[5],0.004 mg/dL
same,GLC,[5],183.2 mg/dL
same,IP,[5],9.4 mg/dL
same,K,[5],4.9 meq/L
same,LDH,[5],143.2 IU/L
same,Na,[5],140.6 meq/L
same,PL,[5],139.2 mg/dL
same,RALB,[5],3.8 g/dL
same,TBIL,[5],0.2 mg/dL
same,TC,[5],86 mg/dL
same,TP,[5],5.7 g/dL
same,gamma-GTP,[5],1.4 IU/L
same,TERMINAL_BW,[6],228.1 g
same,TERMINAL_BW,[7],267.6 g
same,TERMINAL_BW,[8],381.8 g
same,APTT,[6],16 s
same,Bas,[6],0%
same,Eos,[6],0.8%
same,Fbg,[6],231.8 mg/dL
same,Hb,[6],13.5 g/dL
same,Ht,[6],40.4%
same,Lym,[6],81.2%
same,MCH,[6],21.1 pg
same,MCHC,[6],33.5%
same,MCV,[6],63 fL
same,Mono,[6],5.4%
same,Neu,[6],12.8%
same,Plat,[6],106.3 x10_4/uL
same,RBC,[6],640.8 x10_4/ul
same,Ret,[6],6.4%
same,WBC,[6],154.8 x10_2/uL
same,APTT,[7],16.2 s
same,Bas,[7],0%
same,Eos,[7],0.8%
same,Fbg,[7],255.2 mg/dL
same,Hb,[7],14.3 g/dL
same,Ht,[7],43%
same,Lym,[7],82.8%
same,MCH,[7],20.4 pg
same,MCHC,[7],33.2%
same,MCV,[7],61.6 fL
same,Mono,[7],4.4%
same,Neu,[7],12.4%
same,PT,[7],10.2 s
same,Plat,[7],97.3 x10_4/uL
same,RBC,[7],699.2 x10_4/ul
same,Ret,[7],5.7%
same,WBC,[7],139.4 x10_2/uL
same,Bas,[8],0%
same,Eos,[8],1%
same,Fbg,[8],248 mg/dL
same,Hb,[8],14.7 g/dL
same,Lym,[8],85%
same,MCH,[8],19.5 pg
same,MCHC,[8],33.5%
same,MCV,[8],58.2 fL
same,Mono,[8],3.4%
same,Neu,[8],10.8%
same,Plat,[8],110.7 x10_4/uL
same,RBC,[8],757.8 x10_4/ul
same,Ret,[8],3.5%
same,WBC,[8],156.8 x10_2/uL
same,KIDNEY_L,[6],1 g
same,KIDNEY_R,[6],1 g
same,KIDNEY_TOTAL,[6],2 g
same,KIDNEY_L,[7],1.1 g
same,KIDNEY_R,[7],1.1 g
same,KIDNEY_TOTAL,[7],2.2 g
same,KIDNEY_L,[8],1.4 g
same,KIDNEY_R,[8],1.4 g
same,KIDNEY_TOTAL,[8],2.8 g
same,LIVER,[6],10.5 g
same,LIVER,[7],11 g
same,LIVER,[8],15 g
same,ALP,[6],850.4 IU/L
same,AST,[6],64 IU/L
same,BUN,[6],21.2 mg/dL
same,CRE,[6],0.5 mg/dL
same,Ca,[6],11.5 mg/dL
same,DBIL,[6],0 mg/dL
same,GLC,[6],182.4 mg/dL
same,IP,[6],9.6 mg/dL
same,K,[6],5.1 meq/L
same,LDH,[6],96.8 IU/L
same,Na,[6],141 meq/L
same,PL,[6],158.8 mg/dL
same,RALB,[6],3.8 g/dL
same,TBIL,[6],0.2 mg/dL
same,TC,[6],86 mg/dL
same,TG,[6],90.2 mg/dL
same,TP,[6],5.8 g/dL
same,gamma-GTP,[6],1.6 IU/L
same,ALP,[7],871.8 IU/L
same,AST,[7],61.4 IU/L
same,BUN,[7],22.8 mg/dL
same,CRE,[7],0.6 mg/dL
same,DBIL,[7],0.03 mg/dL
same,GLC,[7],182.6 mg/dL
same,IP,[7],7.8 mg/dL
same,K,[7],4.8 meq/L
same,LDH,[7],171.8 IU/L
same,Na,[7],139.2 meq/L
same,PL,[7],169 mg/dL
same,RALB,[7],4 g/dL
same,TBIL,[7],0.2 mg/dL
same,TC,[7],92 mg/dL
same,TP,[7],6.1 g/dL
same,gamma-GTP,[7],1.8 IU/L
same,ALP,[8],690 IU/L
same,ALT,[8],32.4 IU/L
same,AST,[8],51.8 IU/L
same,BUN,[8],19.4 mg/dL
same,CRE,[8],0.4 mg/dL
same,Ca,[8],11.2 mg/dL
same,DBIL,[8],0.022 mg/dL
same,GLC,[8],180.6 mg/dL
same,IP,[8],7.5 mg/dL
same,K,[8],4.4 meq/L
same,LDH,[8],160.6 IU/L
same,Na,[8],140.2 meq/L
same,PL,[8],173 mg/dL
same,RALB,[8],4.1 g/dL
same,TBIL,[8],0.2 mg/dL
same,TC,[8],96 mg/dL
same,TG,[8],102 mg/dL
same,TP,[8],6.6 g/dL
same,gamma-GTP,[8],2.4 IU/L
